Test results published in the supplement of paper PMC10307832.

Columns and labels:
Assay in all cases: relative viability (nuclei count vs DMSO), 5 days (fraction); higher = more cells survive
[1] = compound: CCC1=CN=CN=C1N2CCN(CC2)CC3=NC4=C(N3)C=C(C=C4)C(F)(F)F + CC1(C)CCC(c2ccc(Cl)cc2)=C(CN2CCN(c3ccc(C(=O)NS(=O)(=O)c4ccc(N[C@H](CCN5CCOCC5)CSc5ccccc5)c(S(=O)(=O)C(F)(F)F)c4)cc3)CC2)C1 [Navitoclax] (partner 0.5 µM)
In short: (§1)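 Relative viability was taken as the ratio of nuclei in treated wells to nuclei in vehicle wells. Lung cancer cell lines in 1536-well plates received compounds by pin tool one day after seeding, either one drug alone or a fixed anchor-drug dose plus five library-drug doses (not always all listed) in √10 steps. Nuclei were counted on 4× images after 5 days of treatment, and values are medians of duplicate plates.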

[2] = compound: CCn1c(-c2nonc2N)nc2cnc(Oc3cccc(NC(=O)c4ccc(OCCN5CCOCC5)cc4)c3)cc21 + CC(=O)c1c(C)c2cnc(Nc3ccc(N4CCNCC4)cn3)nc2n(C2CCCC2)c1=O [Palbociclib] (partner 0.5 µM)
In short: as §1

[3] = compound: CCn1c(-c2nonc2N)nc2cnc(Oc3cccc(NC(=O)c4ccc(OCCN5CCOCC5)cc4)c3)cc21 + CC1(C)CCC(c2ccc(Cl)cc2)=C(CN2CCN(c3ccc(C(=O)NS(=O)(=O)c4ccc(N[C@H](CCN5CCOCC5)CSc5ccccc5)c(S(=O)(=O)C(F)(F)F)c4)cc3)CC2)C1 [Navitoclax] (partner 0.5 µM)
In short: as §1

[4] = compound: N=C1NC(=O)/C(=C/c2ccc(O)cc2)S1 [Mirin] + Nc1nc2[nH]cc(CCc3ccc(C(=O)N[C@@H](CCC(=O)O)C(=O)O)cc3)c2c(=O)[nH]1 [Pemetrexed] (partner 0.2 µM)
In short: as §1

Cell Line	relative viability ([1]; first compound 0.04 µM)	relative viability ([1]; first compound 0.1265 µM)	relative viability ([1]; first compound 0.4 µM)	relative viability ([1]; first compound 1.265 µM)	relative viability ([1]; first compound 4 µM)	relative viability ([2]; first compound 0.04 µM)	relative viability ([2]; first compound 0.1265 µM)	relative viability ([2]; first compound 0.4 µM)	relative viability ([2]; first compound 1.265 µM)	relative viability ([2]; first compound 4 µM)	relative viability ([3]; first compound 0.04 µM)	relative viability ([3]; first compound 0.1265 µM)	relative viability ([3]; first compound 0.4 µM)	relative viability ([3]; first compound 1.265 µM)	relative viability ([3]; first compound 4 µM)	relative viability ([4]; first compound 0.25 µM)	relative viability ([4]; first compound 0.7906 µM)	relative viability ([4]; first compound 2.5 µM)	relative viability ([4]; first compound 7.906 µM)	relative viability ([4]; first compound 25 µM)
NCI-H2228	0.996	0.847	0.979	0.888	0.747	0.852	0.8	0.652	0.683	0.644	0.759	0.841	1.07	0.927	0.833	0.394	0.301	0.291	0.315	0.364
NCI-H2342						0.467	0.52	0.554	0.52	0.553						0.728	0.801	0.769		0.735
NCI-H358						0.162	0.167	0.134	0.145	0.135						0.162	0.176	0.182	0.161	0.143
ABC-1						0.647	0.941	0.635	0.332	0.393										
NCI-H650						0.349	0.297	0.255	0.201	0.184						1.05	0.865	0.928	0.711	0.94
LCLC-103H						0.478	0.464	0.485	0.429	0.518						0.441	0.523	0.487	0.425	0.435
NCI-H1563																0.854	0.898	0.98	0.745	0.769
NCI-H522						1.18	1.13	0.853	0.909	0.827						0.799	1.02	0.764	1	0.522
SW 900						0.54	0.517	0.572	0.521	0.574						0.505	0.494	0.47	0.494	0.48
NCI-H661						0.363	0.395	0.366	0.365	0.303						0.906	1.01	0.942	0.953	0.822
EBC-1	0.422	0.49	0.396	0.415	0.434						0.519	0.341	0.429	0.323	0.261					
IA-LM	0.733	0.806	0.646	0.654	0.695						1.06	1.03	0.781	0.799	0.725					
NCI-H1703	0.901	1.13	1.1	0.85	1.08						1.03	0.886	0.474	0.296	0.233					
NCI-H727	0.487	0.501	0.357		0.35		0.63	0.599	0.657	0.622	0.476	0.564	0.46	0.441	0.382					
NCI-H596	1.01	0.899	0.933	0.944	1						1.06	0.962	1.01	1.01	1.01	0.493	0.542	0.437	0.521	0.539
